In ChEMBL document CHEMBL5260857, “Identification of specific carbonic anhydrase inhibitors via in situ click chemistry, phage-display and synthetic peptide libraries: comparison of the methods and structural study” (RSC Med Chem, 2023) one finds Ki data, which are given here for 12 compounds.

What is called Ki is the equilibrium dissociation constant of an inhibitor or competing ligand from its target.

Where a SMILES comes first, the peptide text is derived from it. The star is where a group is joined. X2 = NS(=O)(=O)c1ccc(CCNC(=O)Cn2cc(COC(=O)*)nn2)cc1; X1 = NS(=O)(=O)c1ccc(CO/N=C/C(=O)*)cc1

For the experiment, the target named is Carbonic anhydrase 9 (Homo sapiens, UniProt Q16790). In words: Inhibition of human carbonic anhydrase 9 assessed as Ki by stopped-flow carbon dioxide hydration assay.

`C#Cc1ccc(S(N)(=O)=O)cc1`: the Ki is 150 nM.

Regarding `CC(C)C[C@H](NC(=O)[C@H](CO)NC(=O)/C=N/OCc1ccc(S(N)(=O)=O)cc1)C(=O)N1CCC[C@H]1C(N)=O`, the Ki turned out to be 2800 nM.

`NC(=O)[C@H](CO)NC(=O)/C=N/OCc1ccc(S(N)(=O)=O)cc1`: the Ki amounted to 1800 nM.

Take `[N-]=[N+]=NCC(=O)NCCc1ccc(S(N)(=O)=O)cc1`: the Ki amounted to 1200 nM.

Take `CC(C)C[C@H](NC(=O)[C@H](CO)NC(=O)/C=N/OCc1ccc(S(N)(=O)=O)cc1)C(N)=O`: the Ki came out at 2500 nM.

Turning to `CC(C)C[C@@H](C(N)=O)n1cc(-c2ccc(S(N)(=O)=O)cc2)nn1`, the Ki is 11 nM.

Take `NOCc1ccc(S(N)(=O)=O)cc1`: the Ki worked out at 844 nM.

On to `NC(=O)[C@H](Cc1ccc(O)cc1)NC(=O)[C@H](Cc1ccc(O)cc1)NC(=O)[C@H](Cc1ccccc1)NC(=O)[C@H](Cc1c[nH]c2ccccc12)NC(=O)[C@H](Cc1ccccc1)NC(=O)[C@H](Cc1ccccc1)NC(=O)[C@@H](N)CCCCNC(=O)OCc1cn(CC(=O)NCCc2ccc(S(N)(=O)=O)cc2)nn1` (H-K(X2)FFWFYY-NH2), for which the Ki amounted to 104 nM.

Turning to `CC(C)C[C@H](NC(=O)[C@H](CCC(N)=O)NC(=O)[C@H](Cc1ccc(O)cc1)NC(=O)[C@H](Cc1ccccc1)NC(=O)[C@@H](N)CCCCNC(=O)OCc1cn(CC(=O)NCCc2ccc(S(N)(=O)=O)cc2)nn1)C(=O)N[C@@H](Cc1ccc(O)cc1)C(=O)N[C@@H](Cc1ccccc1)C(N)=O` (H-K(X2)FYQLYF-NH2), the inhibition constant (Ki) is 69 nM.

For the compound `C[C@H](NC(=O)[C@H](Cc1cnc[nH]1)NC(=O)[C@H](C)NC(=O)[C@H](CCCCN)NC(=O)[C@H](Cc1ccc(O)cc1)NC(=O)[C@@H]1CCCN1C(=O)[C@H](Cc1cnc[nH]1)NC(=O)/C=N/OCc1ccc(S(N)(=O)=O)cc1)C(=O)N[C@@H](Cc1cnc[nH]1)C(N)=O` (X1-HPYKAHAH-NH2), the Ki was 358 nM.

Turning to `CC(C)C[C@H](NC(=O)[C@H](CO)NC(=O)/C=N/OCc1ccc(S(N)(=O)=O)cc1)C(=O)N1CCC[C@H]1C(=O)N[C@@H](Cc1ccccc1)C(N)=O` (X1-SLPF-NH2), the Ki stood at 936 nM.

Regarding `CC(C)C[C@H](NC(=O)[C@H](CO)NC(=O)/C=N/OCc1ccc(S(N)(=O)=O)cc1)C(=O)N1CCC[C@H]1C(=O)N[C@@H](Cc1ccccc1)C(=O)N[C@H](C(=O)N[C@H](C(=O)N[C@@H](Cc1ccc(O)cc1)C(=O)N[C@@H](CC(N)=O)C(N)=O)C(C)C)[C@@H](C)O` (X1-SLPFTVYN-NH2), the Ki is 1370 nM.
